Like-named read-outs stand apart in the source and are kept apart here.

The subject of test [1] is isolated perfused guineapig hearts. Kind of test: Coronary and circulatory activity on isolated perfused guineapig hearts. The conditions noted are these: Cavia porcellus, 10^-6 g/ml, difference to starting pressure set as 100%. The text has this:
The coronary and circulatory activities were discovered using isolated perfused guineapig hearts.
For this, the hearts of 250 to 350 g guineapigs are used. The animals are killed by a blow to the head, the thorax is opened, and a metal cannula is tied into the exposed aorta. The heart is removed from the thorax with the lungs and is connected to the perfusion apparatus through an aortic cannula, with continuous perfusion. The lungs are removed at the lung roots. A Krebs Henseleit solution (1) (118.5 mmol/l of NaCl, 4.75 mmol/l of KCl, 1.19 mmol/l of KH2 PO4, 1.19 mmol/l of MgSO4, 25 mmol/l of NaHCO3, 0.013 mmol/l of Na2 EDTA), which contains 1.2 mmol/l of CaCl2, is used as the perfusion medium. 10 mmol/l of glucose are added as an energy-liberating substrate. Before the perfusion the solution is filtered until free of particles. The solution is gassed with Carbogen (95% O2, 5% CO2) in order to maintain a pH value of 7.4. The hearts are perfused at a constant flow rate (10 ml/min) at 32° C. using a peristaltic pump.
In order to measure the cardiac function, a latex balloon filled with liquid and connected through a column of liquid to a pressure gauge is introduced into the left ventricle through the left auricle, and the isovolumetric contractions are recorded on a high-speed recorder (Opie, L., J. Physiol. 180 (1965) 529-541). The perfusion pressure is recorded using a pressure gauge which is connected to the perfusion system upstream of the heart. Under these conditions a decrease in the perfusion pressure indicates coronary dilation, and a rise or fall in the amplitude of contraction of the left ventricle indicates an increase or decrease in cardiac contractility. The compounds according to the invention are infused into the perfusion medium at suitable dilutions just upstream of the isolated heart.
The following values show, as an example, the effect of the compounds according to the invention on isolated perfused guineapig hearts, expressed as the percentage difference to the starting pressure, set as equivalent to 100%.

For another test, the system named is TXA2 synthesis. The experiment in a line: Inhibition of TXA2 synthesis (3H-arachidonic acid metabolism in washed human thrombocytes, TLC). As to conditions: 10 min, 2 min pre-incubation, 10 min with 3H-arachidonic acid, 37° C., read-out: Minimal effective concentration for inhibition (MEC) of TXA2 synthesis. Format: cell-based. An excerpt: Arachidonic acid metabolism in human thrombocytes was investigated using tritium-labelled arachidonic acid. Thrombocytes metabolize arachidonic acid to TXA2 and HHT via the cyclooxygenase pathway and to 12-HETE via the lipoxygenase pathway, which can be separated by thin layer chromatography [cf Bailey, J.M. et al., Prostaglandins 13, 479-492, (1977)], Inhibitors of the individual enzymatic reactions alter the chromatographic distribution pattern in a characteristic manner.
Washed human thrombocytes from healthy donors who had taken no drug for 14 days were incubated for 2 minutes at 37° C. with the test substance and then incubated for a further 10 minutes at 37° C. with ^3 H-arachidonic acid. The suspension was acidified and extracted with ethyl acetate. The ethyl acetate was evaporated off under a nitrogen atmosphere and the residue was taken up in methanol/trichloromethane (1:1) and applied to TLC plastic sheets. Separation was performed using a trichloromethane/methanol/glacial acetic acid/water (80:8:1:0.8) mobile solvent mixture. The distribution of radioactivity was measured by means of a radioscanner (Table 1).

A further test relates to PGI2 synthesis. The experiment in a line: Prostacyclin stimulation in whole blood (collagen-induced, 6-keto-PGF1α radioimmunologically). As to conditions: read-out: Stimulation of PGI2 synthesis (MEC). Format: cell-based. The protocol: The 1,4-dihydrophyridines to be used according to the invention additionally stimulate the synthesis of PGI2. PGI2 has vasodilating and thrombocyte aggregation inhibiting activity, in contrast with the vasoconstrictor and thrombocyte aggregation […] action of thromboxan.
In whole blood, collagen induces the formation of PGI2. The endoperoxides formed in the thrombocytes are probably converted into PGI2 by leucocytes. The stable end product of PGI2 conversion, 6-keto-PGF1 α, is determined radioimmunologically (Table 2).

[2] abbreviates: decrease indicates coronary dilation, read-out: % alteration in perfusion pressure.
[3] abbreviates: read-out: % alteration in contractility.

Regarding `CCOC(=O)C1=C(C)NC(C)=C(C(=O)OCc2ccc(C3=NNC(=O)CC3)cc2)C1c1cccc([N+](=O)[O-])c1` (stereo not shown) [Example 7, Ethyl 4-(6-oxo-1,4,5,6-tetrahydropyridazin-3-yl)benzyl 1,4-dihydro-2,6-dimethyl-4-(3-nitrophenyl)-pyridine-3,5-dicarboxylate], the percent change at 1 µg/mL in test [1] (setting [2]) was found to be 0%. Further, the inhibition at 1 µg/mL in test [1] (setting [3]) was 60%.

Turning to `CC1=C(C(=O)OCCCc2cccnc2)C(CCc2cccnc2)C(C(=O)OCc2ccc(C3=NNC(=O)CC3)cc2)=C(C)N1` (stereo not shown) [Example 11], the inhibition at 1 µg/mL came to 36% in test [1] (setting [2]) and 23% in test [1] (setting [3]). Besides, the minimal effective concentration in the test on TXA2 synthesis was 0.1 µg/mL.

As to `COC(=O)C1=C(C)NC(C)=C(C(=O)OCc2ccc(C3=NNC(=O)CC3)cc2)C1c1ccccc1Cl` (stereo not shown) [Example 13], the percent change at 1 µg/mL in test [1] (setting [2]) was 0%. Also, the inhibition at 1 µg/mL in test [1] (setting [3]) amounted to 78%.

Consider `COC(=O)C1=C(C)NC(C)=C(C(=O)OCc2ccc(C3=NNC(=O)CC3)cc2)C1CCc1cccnc1` (stereo not shown) [Example 16], for which, in the test with TXA2 synthesis, the minimal effective concentration is 0.1 µg/mL.

As for `CC(=O)C1=C(C)NC(C)=C(C(=O)OCc2ccc(C3=NNC(=O)CC3)cc2)C1CCc1cccnc1` (stereo not shown) [Example 18], in the test with TXA2 synthesis, the minimal effective concentration was found to be 0.1 µg/mL.

With `CC1=C(C#N)C(CCc2cccnc2)C(C(=O)OCc2ccc(C3=NNC(=O)CC3)cc2)=C(C)N1` (stereo not shown) [Example 19], in the test with TXA2 synthesis, the minimal effective concentration turned out to be 0.1 µg/mL.

In the case of `COC(=O)C1=C(C)NC(C)=C(C(=O)OCCc2ccc(C3=NNC(=O)CC3)cc2)C1CCc1cccnc1` (stereo not shown) [Example 21], the minimal effective concentration with PGI2 synthesis was below 3 µg/mL.

Consider `CC1=C(C(=O)OCCCc2cccnc2)C(CCc2cccnc2)C(C(=O)OCCc2ccc(C3=NNC(=O)CC3)cc2)=C(C)N1` (stereo not shown) [Example 22], for which the results for the minimal effective concentration with TXA2 synthesis and in the test with PGI2 synthesis were below 0.1 µg/mL and below 1 µg/mL, respectively.

The values above are taken from US4876255A, “Substituted 1,4-dihydropyridines for control of circulation and thromboses” (Bayer Aktiengesellschaft, priority 1987, dated 1989).
